From patent publication US11666558B2, “Methods of treating intraocular pressure with activators of Tie-2” (EyePoint Pharmaceuticals, Inc., priority 2015, dated 2023)
Read-outs that look alike come from different tables or passages of the source.

Key:
[1] = Plasma concentrations and pharmacokinetic parameters after topical ocular, subcutaneous and intravitreal administration; type: in vivo, New Zealand White rabbits; conditions: plasma, plasma; for AUC(0-t): read-out: AUClast (± SE); for concentration at 0.5 hr: 0.50 hr
Experimental: To measure the concentration of Compound 1 in plasma and ocular tissues following topical ocular, subcutaneous, and intravitreal administration, New Zealand White rabbits were administered Compound 1, and plasma and ocular samples were collected at pre-determined time points. Compound 1 formulations were prepared fresh on each day of dosing.
New Zealand White rabbits weighing 2.5 to 3.5 kg were used on this study. Rabbits were housed one per cage. Animals were not fasted and only healthy animals with no ocular illness were used. Two rabbits per group were sacrificed at each of four ocular tissue sampling time points for a total of eight rabbits per group.
Animals were anesthetized for ocular (topical) and intravitreal dosing following the 12IA7 IACUC protocol. Each rabbit received a bolus dose of test formulation either via topical ocular administration 3 times daily on Days 1 and 2 (at 0, 6, and 12 hours), and once on Day 3 (at 0 hours) into both eyes; via intravitreal administration into both eyes once on Day 1 (at 0 hours); or via subcutaneous administration 2 times daily on Days 1 and 2 (at 0 and 8 hours) and once daily on Day 3 (at 0 hours). Doses were given within an approximately 1 hour window each day where applicable.
Each blood sample was collected on Day 3 post dose at pre-determined time points from the rabbits via an ear vessel and placed into chilled polypropylene tubes containing sodium heparin as an anticoagulant. Samples were spun by centrifuge at 4° C. and 3,000×g for 5 minutes. Samples were maintained chilled throughout processing. Each plasma sample was placed on dry ice and stored in a freezer at −60° C. to −80° C. pending bioanalysis.
An LC-MS/MS method was developed for the determination of Compound 1 in rabbit aqueous tissues (plasma, aqueous and vitreous humor) and solid ocular tissue samples. A pre-study standard curve was analyzed to determine the specificity, range, and lower limit of quantitation of the method. Plasma and tissue homogenate study samples were extracted and analyzed. All the samples were treated identically to the standards.
One eight-point standard curve was used in each analytical batch. To be accepted, each batch must have had at least five of eight standards with accuracy within ±20% of nominal, except at the lower limit of quantification (LLOQ), where ±25% was acceptable.
Pharmacokinetic parameters were calculated from the time course of the plasma concentration. The maximum plasma concentration (Cmax) and time to the maximum plasma drug concentration (Tmax) were the observed values for each concentration-time profiles. The area under the plasma drug concentration-time curve (AUClast, with last being from time 0 to the last quantifiable point) was calculated using the trapezoidal formula. The mean residence time MRTlast was calculated as a ratio of AUMClast (area under the first movement curve) to AUClast.

intraocular pressure = experiment: Intraocular pressure change from baseline, Compound 1 BID at varying doses, 28 Day EOT (FIG. 1); type: in vivo, human; conditions: doses greater than 15 mg BID, patients with diabetic macular edema
Experimental: The difference in IOP was determined at the end of the trial, which was 28 days after treatment began (28 Day EOT). Changes in IOP were determined both in the study eye and the fellow eye.

[2] = In vitro diffusion across rabbit cornea and sclera in Franz cell; type: in vitro ADME; conditions: 1.5% of the sodium salt with 5% HPβCD in 50:50 D5W:sterile water
[3] = New Zealand White, rabbit, other: intravitreal, 1.54 mg/kg, intravitreal 2.5 mg/eye (~1.54 mg/kg), suspension
[4] = New Zealand White, rabbit, other: intravitreal, 2.5 mg, intravitreal 2.5 mg/eye (~1.54 mg/kg), suspension
[5] = New Zealand White, rabbit, other: intravitreal, 2.5 mg/eye, intravitreal 2.5 mg/eye (~1.54 mg/kg), suspension, read-out: plasma Average
[6] = New Zealand White, rabbit, other: intravitreal, 2.5 mg/eye, intravitreal 2.5 mg/eye (~1.54 mg/kg), suspension, read-out: plasma Conc., individual rabbit
[7] = New Zealand White, rabbit, sc, 5 mg/kg, subcutaneous 5 mg/kg/dose, suspension
[8] = New Zealand White, rabbit, subcutaneous, 5 mg/kg/dose, subcutaneous 5 mg/kg/dose, suspension, read-out: plasma Average
[9] = New Zealand White, rabbit, subcutaneous, 5 mg/kg/dose, subcutaneous 5 mg/kg/dose, suspension, read-out: plasma Conc., individual rabbit
[10] = intravitreal suspension, normalized by 1.54 mg/kg
[11] = subcutaneous suspension, normalized by 5 mg/kg

In the case of COC(=O)N[C@@H](Cc1ccccc1)C(=O)N[C@@H](Cc1ccc(NS(=O)(=O)O)cc1)c1csc(-c2cccs2)n1 [Compound 1 free acid], the AUC(0-inf) [1, 3] is reported as 746 ng·h/mL, the Cmax [1, 3] is reported as 25.3 ng/mL and the MRT last [1, 3] is reported as 19.1 h. For the same compound, the half-life [1, 3] was 16.5 h, the AUC(0-t) [1, 3] was 707 ng·h/mL and the Tmax ([1]; New Zealand White, rabbit, other: intravitreal, 1.54 mg/kg, intravitreal 2.5 mg/eye (~1.54 mg/kg), suspension, read-out: tmax) was 1 h. It also gave an AUC(0-inf) [1, 4] of 746 ng·h/mL, a Cmax [1, 4] of 25.3 ± 9.3 ng/mL and an MRT last [1, 4] of 19.1 h. It also gave a half-life [1, 4] of 16.5 h, an AUC(0-t) [1, 4] of 707 ± 53.1 ng·h/mL and a Tmax ([1]; New Zealand White, rabbit, other: intravitreal, 2.5 mg, intravitreal 2.5 mg/eye (~1.54 mg/kg), suspension, read-out: tmax) of 1 h. It also gave a concentration at 1 h ([1]; New Zealand White, rabbit, other: intravitreal, 2.5 mg/eye, intravitreal 2.5 mg/eye (~1.54 mg/kg), suspension, 1.0 hr, read-out: plasma Average) of 25.3 ng/mL, a concentration at 3 h [1, 5] of 24.4 ng/mL and a concentration at 3 h [1, 6] of 28.4 ng/mL. For the same compound, the concentration at 6 h [1, 5] was 23.1 ng/mL, the concentration at 6 h [1, 6] was 22 ng/mL and the concentration at 24 h [1, 5] was 12.3 ng/mL. The concentration at 24 h [1, 6] was 9.96 ng/mL, the concentration at 48 h [1, 5] was 3.63 ng/mL and the concentration at 48 h [1, 6] was 2.69 ng/mL. The concentration at 72 h [1, 5] was 1.65 ng/mL, the concentration at 72 h [1, 6] was 1.83 ng/mL and the AUC(0-t) [1, 7] was 864 ± 69 ng·h/mL. The Tmax ([1]; New Zealand White, rabbit, sc, 5 mg/kg, subcutaneous 5 mg/kg/dose, suspension, read-out: tmax) was 0.25 h, the Tmax ([1]; New Zealand White, rabbit, sc, 5 mg/kg, subcutaneous administration, suspension, read-out: Mean plasma Tmax (converted)) was 0.25 h and the AUC(0-inf) [1, 7] was 1200 ng·h/mL. For the same compound, the Cmax [1, 7] was 395 ± 170 ng/mL, the MRT last [1, 7] was 1.58 h and the half-life [1, 7] was 2.12 h. The concentration at 0.25 hr ([1]; New Zealand White, rabbit, subcutaneous, 5 mg/kg/dose, subcutaneous 5 mg/kg/dose, suspension, 0.25 hr, read-out: plasma Average) was 395 ng/mL, the concentration at 0.5 hr [1, 8] was 337 ng/mL and the concentration at 0.5 hr [1, 9] was 272 ng/mL. It also gave a concentration at 1 hr ([1]; New Zealand White, rabbit, subcutaneous, 5 mg/kg/dose, subcutaneous 5 mg/kg/dose, suspension, 1.0 hr, read-out: plasma Average) of 295 ng/mL, a concentration at 1 hr ([1]; New Zealand White, rabbit, subcutaneous, 5 mg/kg/dose, subcutaneous 5 mg/kg/dose, suspension, 1.0 hr, read-out: plasma Conc., individual rabbit) of 300 ng/mL and a concentration at 2 hr [1, 8] of 206 ng/mL. It also gave a concentration at 2 hr [1, 9] of 194 ng/mL, a concentration at 4 hr [1, 8] of 110 ng/mL and a concentration at 4 hr [1, 9] of 111 ng/mL. For the same compound, the “Dose normalized AUClast” value [1, 10] was 459 kg·ng·h/mL/mg, the “Dose normalized AUC∞” value [1, 10] was 484 kg·ng·h/mL/mg and the “Dose normalized AUClast” value ([1]; intravitreal suspension, normalized by 1.54 mg/kg, listed as Compound 1 (free acid)) was 459 ± 34.5 kg·ng·h/mL/mg. For the same compound, the “Dose normalized AUClast” value [1, 11] was 173 kg·ng·h/mL/mg, the “Dose normalized AUC∞” value [1, 11] was 240 kg·ng·h/mL/mg and the “Dose normalized AUClast” value ([1]; subcutaneous suspension, normalized by 5 mg/kg, listed as Compound 1 (free acid)) was 173 ± 13.8 kg·ng·h/mL/mg.

In the case of COC(=O)N[C@@H](Cc1ccccc1)C(=O)N[C@@H](Cc1ccc(NS(=O)(=O)O)cc1)c1csc(-c2cccs2)n1 [Compound 1], the “intraocular pressure (IOP) relative to pre-treatment baseline” value (intraocular pressure) is reported as “decreased IOP” and the “diffusion across rabbit cornea and sclera” value [2] is reported as “substantial diffusion”.
